Assay results taken from publication PMC10313921, “A living ex vivo platform for functional, personalized brain cancer diagnosis” (Cell Reports Medicine, 2023).

Columns and labels:
[1] = system: MS21 (low-passage patient-derived GBM line); experiment: Drug screening of MS21 tumor foci on OBSCs; assay type: cell-based, human
Procedure, shortened: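 Bioluminescence viability readout, 3 d post-treatment, normalized to day-1 tumor fluorescence vs untreated; 6 drug concentrations or XRad, n = 4 foci per concentration. Drug sensitivity score sums weighted parameters comparing tumor kill with OBSC toxicity, ranging −100 to 100.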

[2] = system: U373KO (RAD18 knockout of U373WT via CRISPR); experiment: Drug screening of U373KO tumor foci on OBSCs; assay type: cell-based, human; settings: U373 KO on OBSCs
Procedure, shortened: (§1)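 Luciferase-expressing tumor cells seeded onto organotypic brain slice cultures; one day later treated with six drug concentrations in the medium, or X-irradiation. Bioluminescence read three days after treatment, normalised to day-one fluorescence and untreated controls. Dose-response values by linear interpolation; DSS combines weighted tumor-kill versus slice-toxicity parameters (−100 to 100).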

[3] = system: U373WT (wild-type established GBM line); experiment: Drug screening of U373WT tumor foci on OBSCs; assay type: cell-based, human; settings: U373 WT on OBSCs
Procedure, shortened: as §1

[4] = system: MB231Br (breast cancer metastasis to brain); experiment: Drug screening of MB231Br tumor foci on OBSCs; assay type: cell-based, human
[5] = system: GBM8 (high-passage patient-derived GBM line); experiment: Drug screening of GBM8 tumor foci on OBSCs; assay type: cell-based, human
Procedure, shortened: as §1

[6] = system: PGBM-R patient tumor tissue (recurrent tumor from same patient as PGBM); experiment: Drug screening of uncultured patient tumor tissue PGBM-R on OBSCs; assay type: cell-based, human
Procedure: (§2) Tumor cells were seeded onto OBSCs 2h after slicing as described above. One day after tumor seeding, six concentrations of each drug were diluted in the media underneath each culture insert, or XRad was applied using an X-Rad 320 Precision X-ray machine (n = 4 tumor foci per concentration; n ≥ 24 tumor foci per drug per cell line). Three days after treatment, the bioluminescence of live tumor cells was measured using an AMI optical imager (Spectral Instruments) and dose-response curves were generated. Tumor survival was normalized to day one tumor fluorescence and compared to an untreated control group.
(§3) To engraft onto OBSCs, the cryopreserved/thawed or fresh brain tumor tissue was filtered through a 100 μm cell strainer. Each 50 mg of tissue was transfected with 1mL mcherry-FLuc Lentivirus at 1.5e7 vg/ml with 1μL polybrene for 4h at 37°C. After incubation, the brain tumor tissue was washed with PBS three times to remove the residual virus and reconstituted in PBS with a final volume of 150 μL. Then the tissue solution was engrafted atop OBSCs at ∼0.5 mg tissue in 3 μL of PBS on each hemisphere of the slice. The OBSC engrafted with patient tumor tissue was incubated at 37°C with 5% CO2 and 95% humidity. The BSM was changed after 24h and subsequently every 3 days. Tumor treatment studies were executed as described above for tumor lines. The viability of the patient tissue was measured by an AMI optical imaging system with the addition of 1.5 mg/mL luciferin underneath the culture insert.
(§4) Several weighted parameters were factored into an overall drug sensitivity score.
(§5) For DSS parameters 1–6, therapeutic windows were calculated by comparing OBSC toxicity and tumor response at the doses where tumor kill passed through the DSS parameter (Table S1 and S3). For DSS parameter 7, the therapeutic window was calculated by comparing the slopes through the tumor EC50 and the OBSC tox EC50. For DSS parameter 8, the therapeutic window was calculated by comparing the areas under tumor kill and OBSC tox curves. Normalized therapeutic window ratios for DSS parameters 1–8 within each drug-tumor-OBSC interaction were calculated in the following manner: within each window, values ranged from +1 to −1, where values approaching +1 signify increasing tumor kill relative to normal tissue toxicity, and values approaching −1 indicate agents where tumors remained highly viable while toxicity to the normal OBSC tissue was elevated. DSS parameters 9–11 were determined based on the behavior of the tumor in response to the drug, as defined above.
(§6) All individually weighed parameters were added together to generate the DSS. Overall DSS from 0 to 100 signify increasing efficacy in tumor kill relative to OBSC toxicity, while scores from 0 to −100 describe scenarios in which tumors thrive more effectively than OBSCs for a given treatment. Dose-response values were calculated via linear interpolation of raw data, not from best-fit curve equations.

[7] = system: LN229 (established GBM line); experiment: Drug screening of LN229 tumor foci on OBSCs; assay type: cell-based, human
Procedure, shortened: as §1

[8] = system: MG-II patient tumor tissue (WHO grade II meningioma); experiment: Drug screening of uncultured patient tumor tissue MG-II on OBSCs; assay type: cell-based; settings: Homo sapiens, dose required to kill 90% of the tumor
Procedure: as §2, §3, §4, §5, §6

[9] = system: PDIPG (low-passage pediatric patient-derived line); experiment: Drug screening of PDIPG tumor foci on OBSCs; assay type: cell-based, human
Procedure, shortened: as §1

[10] = system: PIS patient tumor tissue (intracranial sarcoma); experiment: Drug screening of uncultured patient tumor tissue PIS on OBSCs; assay type: cell-based, human; settings: Homo sapiens, PIS on OBSCs
Procedure, shortened: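 Uncultured patient tumour tissue, transduced with mCherry-FLuc lentivirus, engrafted on organotypic brain slice cultures (OBSCs); six drug concentrations or X-ray dosing given one day after seeding, n = 4 foci per concentration. Bioluminescence with luciferin read three days post-treatment, normalised to day one and untreated controls; drug sensitivity score combines weighted therapeutic-window parameters versus OBSC toxicity (−100 to 100).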

[11] = Homo sapiens, U373 MG, dose required to kill 50% of the tumor
[12] = Homo sapiens, U373 MG, dose required to kill 90% of the tumor
[13] = Homo sapiens, U373 MG, dosed day 1, survival via bioluminescence day 4, linear interpolation
[14] = area under the dose-response curve, trapezoidal rule
[15] = dose required to kill 10% of the tumor
[16] = dose required to kill 25% of the tumor

CC(=O)Nc1cccc(-n2c(=O)n(C3CC3)c(=O)c3c(Nc4ccc(I)cc4F)n(C)c(=O)c(C)c32)c1 [Trametinib]
EC50 ([1]; Homo sapiens): > 10 µM
EC90 ([1]; Homo sapiens): > 10 µM
IC50 ([1]; Homo sapiens): > 10 µM
Killing at highest dose ([1]; MS21 on OBSCs): -5.00E-02 fraction of tumor population killed
AUC ([1]; MS21 on OBSCs, area under the dose-response curve, trapezoidal rule): 1.26E+02
EC50 [2, 11]: > 10 µM
EC90 [2, 12]: > 10 µM
IC50 [2, 13]: > 10 µM
Killing at highest dose [2]: 3.10E-01 fraction of tumor population killed
AUC [2, 14]: 8.91E+01
EC10 [2, 15]: 45.8 µM
EC25 [2, 16]: 84.5 µM
Slope ([2]; slope through the EC50): -3.88E-03
EC50 [3, 11]: > 10 µM
EC90 [3, 12]: > 10 µM
IC50 [3, 13]: > 10 µM
Killing at highest dose [3]: 4.80E-01 fraction of tumor population killed
AUC [3, 14]: 5.40E+01
EC10 [3, 15]: 0.625 µM
EC25 [3, 16]: 2.16 µM
Slope ([3]; slope through the EC50): -2.50E-04
EC50 ([4]; Homo sapiens, MB231BR on OBSCs, dose required to kill 50% of the tumor): 0.784 µM
EC90 ([4]; Homo sapiens, MB231BR on OBSCs, dose required to kill 90% of the tumor): > 10 µM
IC50 ([4]; Homo sapiens, MB231Br on OBSCs, dosed day 1, survival via bioluminescence day 4, linear interpolation): 0.78 µM
Killing at highest dose ([4]; MB231BR on OBSCs): 7.00E-01 fraction of tumor population killed
AUC ([4]; MB231BR on OBSCs, area under the dose-response curve, trapezoidal rule): 3.32E+01
Slope ([4]; MB231BR on OBSCs, slope through the EC50): -2.78E-01
Killing at highest dose ([5]; GBM8 on OBSCs): 9.80E-01 fraction of tumor population killed
AUC ([5]; GBM8 on OBSCs, area under the dose-response curve, trapezoidal rule): 4.78E+00
EC10 ([5]; GBM8 on OBSCs, dose required to kill 10% of the tumor): 0.0313 µM
EC25 ([5]; GBM8 on OBSCs, dose required to kill 25% of the tumor): 0.0781 µM
EC75 ([5]; GBM8 on OBSCs, dose required to kill 75% of the tumor): 0.779 µM
Slope ([5]; GBM8 on OBSCs, slope through the EC50): -6.33E-01
EC50 ([5]; Homo sapiens): 0.384 µM
EC90 ([5]; Homo sapiens): 1.67 µM
IC50 ([5]; Homo sapiens): 0.38 µM
EC90 ([6]; Homo sapiens, PGBM-R on OBSCs, dose required to kill 90% of the tumor): > 10 µM
increase of DSS in the recurrent tumor ([6]; PGBM-R relative to PGBM): 58 points
Killing at highest dose [7]: 5.60E-01 fraction of tumor population killed
EC50 ([7]; Homo sapiens, LN-229, dose required to kill 50% of the tumor): 18.6 µM
EC90 ([7]; Homo sapiens, LN-229, dose required to kill 90% of the tumor): > 10 µM
IC50 ([7]; Homo sapiens, LN-229, dosed day 1, survival via bioluminescence day 4, linear interpolation): 19 µM
AUC [7, 14]: 4.96E+01
EC10 [7, 15]: 0.668 µM
EC25 [7, 16]: 3.46 µM
Slope ([7]; slope through the EC50): -1.47E-02
EC90 [8]: > 10 µM
EC50 ([9]; Homo sapiens): > 10 µM
EC90 ([9]; Homo sapiens): > 10 µM
IC50 ([9]; Homo sapiens): > 10 µM
Killing at highest dose ([9]; PDIPG on OBSCs): 1.70E-01 fraction of tumor population killed
AUC ([9]; PDIPG on OBSCs, area under the dose-response curve, trapezoidal rule): 8.73E+01
EC10 ([9]; PDIPG on OBSCs, dose required to kill 10% of the tumor): 30 µM
Slope ([9]; PDIPG on OBSCs, slope through the EC50): -1.00E-03
EC50 ([10]; dose required to kill 50% of the tumor): > 100 µM
EC90 ([10]; dose required to kill 90% of the tumor): > 10 µM
